Laboratory results from paper PMC12074917, “Molecular pharmacokinetic mechanism of JBP485 against aristolochic acid I (AAI) -induced nephrotoxicity” (Frontiers in Pharmacology, 2025).

Tests used:
hOAT1 = molecular target: T1, hOAT1 (Homo sapiens, UniProt Q4U2R8); assay: Uptake of AAI by hOAT1-transfected HEK293 cells with or without JBP485; assay type: cell-based
T1 construct: expressed in transfected cells; host or cells: HEK293
T1 sequence (Q4U2R8 1-563): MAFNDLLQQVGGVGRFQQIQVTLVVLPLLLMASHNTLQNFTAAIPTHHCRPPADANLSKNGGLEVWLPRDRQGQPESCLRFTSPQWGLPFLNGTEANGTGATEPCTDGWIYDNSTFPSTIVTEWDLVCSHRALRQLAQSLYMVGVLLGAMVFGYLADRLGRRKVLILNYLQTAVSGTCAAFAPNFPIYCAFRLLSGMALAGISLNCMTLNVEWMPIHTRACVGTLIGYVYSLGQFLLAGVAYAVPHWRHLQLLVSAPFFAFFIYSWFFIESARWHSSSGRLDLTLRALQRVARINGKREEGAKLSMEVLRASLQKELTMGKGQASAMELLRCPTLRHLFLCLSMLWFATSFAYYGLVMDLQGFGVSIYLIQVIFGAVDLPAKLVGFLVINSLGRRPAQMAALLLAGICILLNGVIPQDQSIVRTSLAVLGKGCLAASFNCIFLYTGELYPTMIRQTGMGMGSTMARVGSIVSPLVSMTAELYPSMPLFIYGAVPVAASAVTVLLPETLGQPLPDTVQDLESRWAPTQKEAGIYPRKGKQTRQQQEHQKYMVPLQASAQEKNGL
Method: Uptake experiments with hOAT1/3-HEK293 cells were performed as previously described ([Zhu et al., 2020]). Uptake was initiated by adding transport buffer (1 mL) with AAI (1 μM) and/or JBP485 (500 μM) after the cells were washed twice and incubated with transport buffer at 37°C. Moreover, the concentration-dependent uptake of AAI and the effects of JBP485 on AAI uptake were examined. Uptake was terminated upon the removal of the medium. The cells were washed three times with 1 mL of ice-cold Hanks’ balanced salt solution, lysed with 0.3 mL of 0.1% (v/v) Triton X-100, and then transferred to a polythene tube for quantification by LC-MS/MS. The protein level was measured using the BCA method (Solarbio, Beijing, China) with bovine serum albumin serving as the standard.
The concentrations of the test compounds in plasma, urine, and cell lysates were determined using an Agilent HP1200 liquid chromatography system (Agilent Technology Inc., SC, CA, United States) and an API 3200 triple-quadrupole mass spectrometer (Applied Biosystems, SC, CA, United States). After protein precipitation using acetonitrile, the analyte was separated on a Hypersil BDS C18 column. The mobile phase consisted of acetonitrile and water containing 0.1% (v/v) formic acid (80:20, v/v). The flow rate was 0.4 mL/min. The mass spectrometer was equipped with an electrospray ionization (ESI) source. Data were acquired in positive ion mode and dynamic multiple reaction monitoring (MRM) mode. The ESI source conditions were as follows: ion spray voltage, 5.5 kV; ion source temperature, 600°C; Gas source 1 (GS1, N2) pressure, 50 psi; Gas source 2 (GS2, N2) pressure, 60 psi; curtain gas (CUR) pressure, 12 psi; and collision gas (CAD) pressure, 10 psi. EP and CXP were set at […] for all analytes. The scan range was m/z 359.9→298.1 for AAI and m/z 130.0→71.2 for IS (Internal Standard, metformin). […] Intra- and inter-day precision was lower than 4.5% with reference to relative standard deviation, while accuracy was within ±6.5% in terms of relative error for analytes. Analyst software (version 1.4.1) was used for equipment control and data acquisition and analysis.

[1] = tested on: AAI-induced nephrotoxicity in rats; assay: Toxicity study in rats (AAI-induced nephrotoxicity, AAN): histology, biochemical indicators, oxidative stress markers, Western blotting of kidney; assay type: in vivo, rat
Method: For the assessment of toxicity, AAI was suspended in olive oil and JBP485 was dissolved in saline. Rats were randomly divided into the following four groups (n = 5 per group): A control group, which was administered saline intraperitoneally (i.p.) and olive oil orally (p.o.); a JBP485-only group, administered JBP485 i. p. at the dose of 50 mg/kg and olive oil p. o.; an AAI-only group, in which the rats were administered AAI p. o. at the dose of 20 mg/kg and saline i. p.; and a JBP485 + AAI group, where the animals were given AAI p. o. at the dose of 20 mg/kg and JBP485 i. p. at the dose of 50 mg/kg. JBP485 was intraperitoneally administered 2 days before AAI treatment. On day 3 and 30 min after AAI administration, rats were given saline i. p. or JBP485 (50 mg/kg) once daily for 7 days. On day 10, the rats were euthanized and blood, urine, and kidneys were collected for subsequent assays.
Indoxyl sulfate levels in plasma and urine of rats were determined by liquid chromatography-tandem mass spectrometry (LC–MS/MS) (API 3200; Applied Biosystems, Foster City, CA, United States) according to our previous study ([Guo et al., 2013]).
The levels of BUN and CRE in rat plasma were detected following the instructions of the Nanjing Jiancheng Institute of Biotechnology (Nanjing, China). Samples and reagents were added according to the instructions of the kit and reactions were carried out under the specified conditions. Absorbance was measured at 520 nm and 546 nm, respectively, and the quantities were calculated based on the corresponding formula.
For the extraction of total protein, 100 mg of fresh kidney tissue was placed in 1 mL of RIPA buffer containing protease inhibitor, phosphatase inhibitor, and PMSF, cut into small pieces with ophthalmic scissors, homogenized, and placed at 4°C to fully lyse for 20 min, with vortexing every 5 min. Following centrifugation at 12,000 rpm for 20 min at 4°C, the protein concentration in the supernatant was determined using a BCA protein quantification kit. The protein concentrations of all the samples were then adjusted to the lowest protein concentration measured. Subsequently, an appropriate amount of 5× loading buffer was added according to the volume, and the samples were placed in boiling water for 10 min. Equal amounts of protein (40 μg) were separated by SDS–PAGE at constant current (120 mA), transferred to a PVDF membrane by wet transfer, blocked in 5% non-fat dry milk for 2 h, and incubated overnight with primary antibodies. The next day, the samples were incubated with the corresponding secondary antibodies (goat anti-rabbit IgG [H&L], 1:2000, or goat anti-mouse IgG [H&L], 1:2000) for 2 h at room temperature. The protein bands were developed using enhanced chemiluminescence (ECL, YH0009-1, Nanjing Crane Biopharmaceuticals, Nanjing, China) and Tanon-5200 system (Shanghai Tianneng Technology Company, Shanghai, China) while ImageJ 6.0 software was used for analysis.

[2] = AAI group vs control, Western blot
[3] = JBP485 50 mg/kg i.p. co-administered with AAI 20 mg/kg p.o.
[4] = JBP485 co-administered with AAI
[5] = JBP485 co-administered with AAI vs AAI alone
[6] = JBP485 treatment with AAI vs AAI alone

COc1cccc2c1cc([N+](=O)[O-])c1c(C(=O)O)cc3c(c12)OCO3 [AAI, Aristolochic Acid I]
Km (hOAT1; hOAT1-HEK293 cells, with or without JBP485, Eadie-Hofstee, n = 3): 15.7 ± 0.4 µM | Vmax of AAI uptake (hOAT1; hOAT1-HEK293 cells, with or without JBP485, n = 3): 0.141 ± 0.04 nmol/mg protein/1min | kidney histology (H&E) ([1]; AAI 20 mg/kg p.o.): showed damage | body weight ([1]; AAI 20 mg/kg p.o. vs control): significantly decreased | kidney weight-to-body weight ratio ([1]; AAI 20 mg/kg p.o. vs control): increase | MDA levels in the kidney ([1]; AAI group vs control): markedly increased | SOD level in the kidney ([1]; AAI group vs control): significantly decreased | plasma level of BUN ([1]; AAI group vs control): significantly higher | plasma level of CRE ([1]; AAI group vs control): significantly higher | plasma level of indoxyl sulfate ([1]; AAI group vs control): significantly higher | urine level of indoxyl sulfate ([1]; AAI group vs control): lower | Bax expression in the kidney [1, 2]: increased | Bcl-2 expression in the kidney [1, 2]: decreased | HO-1 protein level in the kidney [1, 2]: significantly decreased | NQO1 protein level in the kidney [1, 2]: significantly decreased | renal transporter expression (Oat1, Oat3, Oct2, P-gp, Mrp2, Mate1) ([1]; AAI-treated rats, Western blot): downregulation

O=C1N[C@@H](CO)C(=O)N2C[C@H](O)C[C@@H]12 (relative stereo) [JBP485, cyclo-trans-4-L-hydroxyprolyl-L-serine]
type of inhibition of AAI uptake (hOAT1; hOAT1-HEK293 cells, Km increased, Vmax unchanged): competitive inhibition | IC50 (hOAT1; hOAT1-transfected HEK293 cells, substrate AAI, read-out: IC50 of inhibition of AAI uptake, OAT1): 89.8 ± 12.3 µM | AAI-induced weight loss [1, 3]: significantly prevented | renal morphology [1, 3]: markedly improved | expression levels of Bcl-2 and Bax in the kidney ([1]; JBP485-only treatment group): no change | body weight or renal morphology ([1]; JBP485 alone 50 mg/kg i.p.): did not influence | kidney histology (H&E) ([1]; JBP485 alone vs control): no significant difference | AAI effect on Bax expression in the kidney [1, 4]: notably reversed | AAI effect on Bcl-2 expression in the kidney [1, 4]: notably reversed | AAI-induced histopathological effects in the kidney (H&E) [1, 4]: significantly mitigated | kidney weight-to-body weight ratio [1, 5]: reduced | plasma level of BUN [1, 5]: opposite trend | plasma level of CRE [1, 5]: opposite trend | plasma level of indoxyl sulfate [1, 5]: opposite trend | urine level of indoxyl sulfate [1, 5]: opposite trend | protein expressions of Oat1, Oat3, Oct2, P-gp, Mrp2 and Mate1 in the kidney ([1]; JBP485 co-administered with AAI vs AAI alone, Western blot): significantly increased | AAI effect on HO-1 protein level in the kidney [1, 6]: reversed | AAI effect on MDA levels in the kidney [1, 6]: reversed | AAI effect on NQO1 protein level in the kidney [1, 6]: reversed | AAI effect on SOD level in the kidney [1, 6]: reversed
